These results are taken from paper doi:10.1101/2022.01.03.474871v1 (biorxiv, 2022).

The target of test [1] is T1, RpfC (full-length, in liposomes) (Xanthomonas campestris, UniProt P0C0F7). Description: […] autophosphorylation assay, RpfC liposomes. The settings on record: activation of autokinase; 100 µM ATP, pH 7.8, 5 mM MgCl2, 28 °C. The class given is biochemical.
The target in test [2] is T1, RpfC (full-length, in liposomes). In words: label-free microscale thermophoresis, RpfC liposomes. The class given is binding. The note with it: 50 mM Tris-HCl pH 7.8, 150 mM NaCl, 10 mM MgCl2, 0.1% Pluronic F-127. A general note: MST reads how a fluorescent partner responds to local heating, with and without ligand.

T1 sequence (P0C0F7 whole entry): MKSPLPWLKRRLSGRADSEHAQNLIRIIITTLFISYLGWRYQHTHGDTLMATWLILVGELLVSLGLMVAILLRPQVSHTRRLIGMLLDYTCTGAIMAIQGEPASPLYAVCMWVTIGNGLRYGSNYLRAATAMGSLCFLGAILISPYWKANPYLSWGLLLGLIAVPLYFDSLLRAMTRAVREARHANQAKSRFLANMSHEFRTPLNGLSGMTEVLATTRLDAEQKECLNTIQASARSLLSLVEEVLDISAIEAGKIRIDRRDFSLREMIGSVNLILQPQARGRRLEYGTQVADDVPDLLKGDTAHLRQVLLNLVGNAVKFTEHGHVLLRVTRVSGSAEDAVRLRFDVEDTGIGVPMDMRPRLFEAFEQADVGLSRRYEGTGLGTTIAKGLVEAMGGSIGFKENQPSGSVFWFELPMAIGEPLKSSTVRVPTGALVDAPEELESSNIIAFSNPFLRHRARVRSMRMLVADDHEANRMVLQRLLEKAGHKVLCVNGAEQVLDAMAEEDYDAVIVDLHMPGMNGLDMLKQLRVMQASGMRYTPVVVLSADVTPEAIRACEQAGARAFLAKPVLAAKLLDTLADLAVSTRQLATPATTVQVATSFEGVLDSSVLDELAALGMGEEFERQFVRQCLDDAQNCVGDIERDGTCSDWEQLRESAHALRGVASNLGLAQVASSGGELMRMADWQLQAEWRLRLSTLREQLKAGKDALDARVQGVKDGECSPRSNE

Regarding `CCCCCCCCC/C=C\C(=O)O` [BDSF, cis-2-dodecenoic acid], in test [1], the EC50 – broadly, the concentration giving half of the maximal effect – was roughly 60 nM. Compound `CCCCCCCCC/C=C/C(=O)O` [trans-BDSF] yielded an EC50 in test [1] of 1110 nM. Besides, binding in test [2] was put at a Kd of 11200 ± 950 nM.
